The nature of data set [1]: Inhibition of Mycobacterium tuberculosis glutamine synthetase 1 assessed as reduction in ADP formation incubated 1 hr in presence of glutamate, ammonium chloride and ATP.
In data set [2] the test system is Mycobacterium tuberculosis. Put plainly: Antimycobacterial activity against Mycobacterium tuberculosis assessed as inhibition of microbial proliferation after 6 days by cell titer blue reagent based assay. Format: functional. The following applies: 144 h.
In the next data set the test system is HepG2. The data set is described as follows: Cytotoxicity against human HepG2 cells after 40 hrs by celltiter Glo assay. Format: cell-based. The note with it: HepG2, 40 h.
Data set [3] can be described thus: Lipophilicity, log D of the compound. Type of data set: physicochemical. The note with it: octanol/water.
Data set [4] concerns Mycobacterium tuberculosis. The data set is described as follows: microbe, parasite or virus in culture. The note with it: H37Rv ATCC 25618.
Description: Antimycobacterial activity against Mycobacterium tuberculosis H37Rv ATCC 25618 assessed as inhibition of microbial proliferation
Data set [5] concerns Mycobacterium tuberculosis. Put plainly: ATP competitive inhibition of Mycobacterium tuberculosis glutamine synthetase 1 assessed as reduction in ADP formation incubated 1 hr in presence of glutamate, ammonium chloride and ATP.

In brackets after ≈: the same amount, converted by molar mass. Activity calls are given as the source filed them. The calls are words filed in the database; no cut-off is given here. Some results are limits rather than exact numbers.

Consider `O=c1[nH]c2c(n3ccnc13)Cc1c-2cccc1-c1cccc2ncccc12`, for which the IC50 in data set [1] was 7000 nM; with HepG2, over 30 µM. The 80% effect concentration (IC80) in data set [2] was over 30 µM. In addition, the MIC in data set [2] is over 30 µM. The logD in data set [3] stood at 1.02.
On to `O=c1c2nccn2c2c(n1Cc1ccccc1)-c1cccc(-c3ccccc3)c1C2`, for which the IC50 in data set [1] is 663 nM; in the data set on HepG2, 20 µM. For the same compound, the IC80 in data set [2] was 29 µM. In data set [2], the MIC worked out at 29 µM. Moreover, the logD in data set [3] stood at 3.33.
As for `O=c1c2nccn2c2c(n1C1CC1)-c1cccc(-c3ccccn3)c1C2`, the figures for the IC50 (in data set [1]; in the data set with HepG2) were 456 nM and over 30 µM, respectively. For the same compound, the IC80 in data set [2] was over 30 µM. Moreover, the MIC in data set [2] was over 30 µM.
`COc1cccc(-c2cccc3c2Cc2c-3[nH]c(=O)c3nccn23)c1`: the IC50 in data set [1] was 51 nM. In data set [2], the IC80 is over 30 µM and the MIC is over 30 µM. Further, the IC50 in the data set on HepG2 was over 30 µM. In data set [3], this compound came in with a logD of 1.87.
With `O=c1[nH]c2c(n3ccnc13)Cc1c(-c3cccc(Cl)c3)cccc1-2`, the IC50 in data set [1] was found to be 610 nM. Further, in data set [2], the IC80 amounted to 22 µM and the MIC stood at 22 µM. In addition, the IC50 with HepG2 is 15 µM. The same compound returned a logD in data set [3] of 2.38.
Regarding `C[S@](=N)(=O)CC[C@H](N)C(=O)O`, the MIC in data set [4] stood at 10 µM (≈ 1.8 µg/mL).
For the compound `CN(C)CCCn1c2c(n3ccnc3c1=O)Cc1c(-c3cccnc3)cccc1-2`, the IC50 in data set [1] stood at 131 nM. In data set [2], the 80% effect concentration (IC80) was over 30 µM and the MIC is over 30 µM. The same compound came in with an IC50 in the data set with HepG2 of over 30 µM.
Regarding `COCCn1c2c(n3ccnc3c1=O)Cc1c(-c3ccccc3)cccc1-2`, the IC50 in data set [1] was found to be 219 nM. Moreover, in data set [2], the IC80 is over 30 µM and the MIC was over 30 µM. The IC50 in the data set on HepG2 stood at 23 µM.
As for `C=CCn1c2c(n3ccnc3c1=O)Cc1c(-c3ccccc3)cccc1-2`, the half-maximal inhibitory concentration (IC50) in data set [1] was 333 nM. In data set [2], the IC80 is over 30 µM and the MIC was over 30 µM. Besides, the IC50 with HepG2 was over 30 µM. In addition, the logD in data set [3] is 2.7.
Consider `COc1cccc(-c2cccc3c2Cc2c-3n(CCCN(C)C)c(=O)c3nccn23)c1`, for which, in data set [1], the IC50 came to 84 nM. Also, in data set [2], the IC80 is over 30 µM and the MIC is over 30 µM. In the data set with HepG2, this compound showed an IC50 of 15 µM.
`O=c1[nH]c2c(n3ccnc13)Cc1c(Br)cccc1-2`: the IC50 in data set [1] was over 30 nM; in the data set on HepG2 it was over 30 µM. Moreover, the IC80 in data set [2] is over 30 µM. Besides, the MIC in data set [2] was over 30 µM. Further, the logD in data set [3] amounted to 1.77.
Consider `CC(C)Cn1c2c(n3ccnc3c1=O)Cc1c(-c3cccnc3)cccc1-2`, for which the IC50 in data set [1] came to 66 nM. Moreover, in data set [2], the IC80 is over 30 µM and the MIC was over 30 µM. In addition, the IC50 in the data set on HepG2 is over 30 µM.
For `O=c1[nH]c2c(n3ccnc13)Cc1c(-c3cccnc3)cccc1-2`, in data set [1], the IC50 was 31 nM. Further, in data set [2], the IC80 was 29 µM and the MIC turned out to be 29 µM. In the data set with HepG2, this compound showed an IC50 of over 30 µM. Besides, the logD in data set [3] turned out to be 0.26.
`CN(C)CCCn1c2c(n3ccnc3c1=O)Cc1c(-c3ccccn3)cccc1-2`: the values for the IC50 (in data set [1]; in the data set with HepG2) were 857 nM and over 30 µM, respectively. Further, in data set [2], the IC80 was over 30 µM. The MIC in data set [2] is over 30 µM.
For the compound `C=CCCn1c2c(n3ccnc3c1=O)Cc1c(-c3cccnc3)cccc1-2`, in data set [1], the IC50 is 7 nM. Besides, in data set [2], the IC80 is over 30 µM and the MIC was over 30 µM. Also, in the data set with HepG2, the IC50 was over 30 µM.
Take `Cn1c2c(n3ccnc3c1=O)Cc1c(-c3ccccc3)cccc1-2`: the IC50 in data set [1] came out at 170 nM. In addition, in data set [2], the IC80 is over 30 µM and the MIC was over 30 µM. Moreover, in the data set with HepG2, the IC50 was over 30 µM. For the same compound, the logD in data set [3] came to 2.25.
Turning to `O=c1[nH]c2c(n3ccnc13)Cc1c(-c3ccccc3)cccc1-2`, the IC50 in data set [1] is 31 nM. In data set [2], the 80% effect concentration (IC80) was over 30 µM and the MIC was over 30 µM. Also, the IC50 in the data set on HepG2 is over 30 µM. Moreover, in data set [5], the inhibition result is “Active”. Also, the logD in data set [3] is 3.52.
Turning to `CC(=O)Nc1cccc2c1Cc1c-2[nH]c(=O)c2nccn12`, in data set [1], the IC50 came out at 2100 nM. In data set [2], the IC80 was over 30 µM and the MIC was over 30 µM. The IC50 in the data set on HepG2 is over 30 µM.

These data come from ChEMBL document CHEMBL3396985, “Nanomolar inhibitors of Mycobacterium tuberculosis glutamine synthetase 1: synthesis, biological evaluation and X-ray crystallographic studies” (Bioorg Med Chem Lett, 2015).
